This passage reports IC50, cell viability and Antiproliferative effect results from paper PMC11292009, “Mapping protein binding sites by photoreactive fragment pharmacophores” (Communications Chemistry, 2024).

For one data set, the system named is PANC-1 cells. In words: MTT cell viability assay, PANC-1. The class given is cell-based, human. The conditions noted are these: for cell viability: replicates. The text has this: (§1) Pancreatic cancer cell lines PANC-1 (cat. no. CRL-1469), SW1990 (cat. no. CRL-2172) were obtained from ATCC (American Type Culture Collection). Genetically modified isogeneic colon cancer cell lines SW48-PAR and SW48-G12D were obtained from Horizon Discovery Ltd. PANC-1 (human pancreatic cancer, KRas^G12D), SW1990 (human pancreatic cancer, KRas^G12D), SW48-PAR (human colon cancer; parental cell line KRas^wt), and SW48-G12D (human colon cancer; heterozygous knockin of the KRas^G12D activating mutation) cancer cell lines were cultured in Roswell Park Memorial Institute Medium (RPMI; Biosera, Nuaille, France), supplemented with 10% heat-inactivated Fetal Bovine Serum (FBS; Biosera), and with 1% Penicillin/Streptomycin (Biosera). Cells were cultured in sterile T75 flasks with ventilation cap (Sarstedt, Nümbrecht, Germany) at 37 °C in a humidified atmosphere with 5% CO2 in ESCO CelCulture Incubator (ESCO, Friedberg, Germany). Manipulations with the cells were performed in biosafety cabinet (laminar) ESCO Sentinel Gold class II model AC2-4E8 (ESCO).
(§2) After standard harvesting of the cells by trypsin-EDTA (Biosera), 7 × 10^3 cells per well depending on the cell line, were seeded in serum-containing growth medium to 96-well plates and incubated. After 24 h, cells were treated with various concentrations of fragments (32 nM–100 μM), dissolved in serum-containing medium, and incubated under standard conditions. Control wells were treated with medium. Final concentration of serum was 2.5%, final concentration of DMSO was 0.2%. Treatment was for 72 h continuously.
(§3) Afterwards, MTT assay was performed in order to determine cell viability, by adding 20 μL of MTT solution (5 mg/mL in PBS) to each well and after 2 h of incubation at 37 °C, the supernatant was removed. The formazan crystals were dissolved in 100 μL of a 1:1 solution of DMSO (Sigma-Aldrich):EtOH (Molar Chemicals) and the absorbance was measured after 15 min at λ = 570 nm by using a microplate reader (BioTek 800TS, Agilent, Santa Clara, CA, USA). The IC50 values of the fragments were calculated using GraphPad Prism 6 (GraphPad Software, San Diego, CA, USA). The experiments were done in triplicate, and each experiment was repeated two times.
(Formazan colour is commonly taken as a measure of viable cells.)

The test system of another data set is SW48-G12D cells. In words: MTT cell viability assay, SW48-G12D. The following applies: for cell viability: replicates, in % (unit assumed). The class given is cell-based, human.
Text: as §1, §2, §3

Where “and” joins values, the source holds several entries; their conditions need not be identical. Identical values can stand only once.

The term IC50 denotes the concentration that gives 50% inhibition. On to `Cc1ncc(CO)c(CNC(=O)CCC2(C)N=N2)c1O` [PhP072, Cc1ncc(CO)c(c1O)CNC(=O)CCC2(C)N=N2], for which the IC50 with PANC-1 cells (Homo sapiens, read-out: IC50, antiproliferative activity, PANC-1, MTT, 72 h) was 22.6 µM. The cell viability is 94.1678 and 97.1333 and 95.7988 and 102.516 and 102.977 and 106.78 in the data set with PANC-1 cells (PANC-1, [PhP072] 3.2e-8 M, in % (unit assumed)); 92.8333 and 84.2333 and 97.1333 and 102.977 (2×) and 103.899 in the data set with PANC-1 cells (PANC-1, [PhP072] 1.6e-7 M); 87.6436 and 92.0919 and 90.4609 and 96.2933 (2×) and 94.7953 with PANC-1 cells (PANC-1, [PhP072] 8e-7 M); 82.1574 and 83.0471 and 79.785 and 89.6098 and 90.0707 and 84.5396 with PANC-1 cells (PANC-1, [PhP072] 4e-6 M, in % (unit assumed)); 72.9643 and 73.7057 and 70.7401 and 83.3872 and 78.8931 and 79.2388 with PANC-1 cells (PANC-1, [PhP072] 2e-5 M, in % (unit assumed)); 57.9884 and 55.9125 and 55.7642 and 57.9207 and 64.7194 (2×) in the data set with PANC-1 cells (PANC-1, [PhP072] 0.0001 M). Also, the cell viability is 102.762 and 97.2381 and 95.6914 and 100.978 and 97.4052 and 99.447 in the data set with SW48-G12D cells ([PhP072] 3.2e-8 M); 100.994 and 98.1219 and 99.0057 and 100.978 and 99.7022 and 99.9575 in the data set with SW48-G12D cells ([PhP072] 1.6e-7 M); 99.8895 and 99.2267 and 100.552 and 98.9365 and 101.489 in the data set with SW48-G12D cells ([PhP072] 8e-7 M); 98.5638 and 96.7962 and 95.0285 and 98.9365 and 100.723 and 98.6813 in the data set with SW48-G12D cells ([PhP072] 4e-6 M); 91.4933 and 92.1561 and 91.9352 and 92.8111 and 94.0872 and 91.5349 in the data set on SW48-G12D cells ([PhP072] 2e-5 M); 75.1427 and 76.0265 and 77.5732 and 78.5183 and 77.2421 and 80.3049 in the data set on SW48-G12D cells ([PhP072] 0.0001 M). Further, the Antiproliferative effect result in the data set on SW48-G12D cells (MTT, 72 h) was “antiproliferative activity”.
